Values of other authors in patent US6998494B2, “Preparation of trans-fused 3,3a,8,12b-tetrahydro-2h-dibenzo[3,4:6,7]cyclohepta[1,2-b]furan derivatives” (Janssen Pharmaceutica N.V., priority 2001, dated 2006).

Details: dose of 300 mg/kg

CNCC1CC2c3ccccc3Cc3ccccc3C2O1.O=C(O)C(=O)O (racemic) [(±)-3,3a,8,12b-tetrahydro-N-methyl-2H-dibenzo[3,4:6,7]-cyclohepta[1,2-b]furan-2-methanamine oxalic acid]
activity as an antidepressant: inactive
